These results are taken from patent publication US9353141B2, “Galectoside inhibitors of galectins” (GALECTO BIOTECH AB, priority 2012, dated 2016).

Holding throughout (assay): Fluorescence polarization-based galectin inhibition assay
Assay type in all cases: binding
(In general: In fluorescence polarisation assays a small probe gives low polarisation when free and higher when bound to something large.)

One assay concerns the target galectin-3 (Homo sapiens, UniProt P17931). As to conditions: 20° C., tdga-probe 20 nM, galectin-3 200 nM, read-out: Calculated Kd Galectin 3. The source says: (§1) Identification of the substances was made by HRMS (Micromass Q-tof micro) and NMR (Bruker Ultrashield 400 plus, 400 MHz). Chemical shifts are reported downfield from Me4Si using residual […] (7.26 ppm) or CHD2OD (3.35 ppm) as reference. Chemical shifts and coupling constants were obtained from ^1H-NMR and proton resonances were assigned from COSY experiments. Purification was made by RF-HPLC (Beckman, system gold) or flash chromatography, using silica gel (Davisil 35-70 μm, 60 Å). Reactions were followed by TLC (Aluminum sheet, silica gel 60 F254) visualized with UV light, H2SO4 (aq) or an iso-vanillin/H2SO4/EtOH development solution. THF and Et2O were dried over sodium/benzophenone and distilled. CH2Cl2 was dried by molecular sieves (4 Å, 1.6 mm). Other solvents and reagents were commercially available and used without further purifications. Fluorescence polarization experiments were performed on a PolarStar instrument (BMG, Offenburg; Germany). Evaluation of 20-34 as inhibitors of galectins was performed by use of fluorescence polarization as described in the literature (Sorme et al., 2003a, 2004). Galectin concentrations and fluorescent probe choice and concentrations were as described in Cumpstey et al. 2005a, except for galectin-3 for which the probe tdga-probe described in Salomonsson et al. 2010 was used at 20 nM together with galectin-3 at 200 nM concentrations. Each inhibitor was tested in duplicate at several concentrations between 4 and 0.25 μM. All fluorescence polarization experiments were conducted at 20° C., except galectin-7 for which experiments were conducted at 0° C.

The target in assay [1] is T1, galectin-4 (C-terminal domain) (Homo sapiens, UniProt P56470).
T1 sequence (P56470 194-323 limits assumed): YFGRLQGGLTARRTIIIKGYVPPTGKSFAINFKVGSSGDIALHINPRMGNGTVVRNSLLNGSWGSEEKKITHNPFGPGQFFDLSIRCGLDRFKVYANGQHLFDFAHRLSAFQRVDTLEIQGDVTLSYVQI
As to conditions: 20° C., read-out: Calculated Kd Galectin 4 (C-terminal domain).
Text: as §1

In assay [2] the target is galectin-9 (N-terminal domain) (Homo sapiens, UniProt O00182). As to conditions: 20° C., read-out: Calculated Kd Galectin 9 (N-terminal domain).
galectin-9 (N-terminal domain), sequence (O00182 17-148 limits assumed, species assumed): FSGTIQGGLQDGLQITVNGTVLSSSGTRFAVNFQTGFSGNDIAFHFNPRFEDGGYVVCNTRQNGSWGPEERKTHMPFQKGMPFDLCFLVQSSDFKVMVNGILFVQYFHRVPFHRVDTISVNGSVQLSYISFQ
Text: as §1

The target of assay [3] is T2, galectin-8 (N-terminal domain) (Homo sapiens, UniProt O00214).
T2 sequence (O00214 19-152 limits assumed): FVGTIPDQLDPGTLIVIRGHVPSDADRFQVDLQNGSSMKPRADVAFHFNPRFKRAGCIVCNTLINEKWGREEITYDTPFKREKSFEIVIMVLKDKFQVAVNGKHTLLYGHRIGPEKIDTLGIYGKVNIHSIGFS
As to conditions: 20° C., read-out: Calculated Kd Galectin 8 (N-terminal domain).
Text: as §1

Assay [4] concerns the target T3, galectin-4 (N-terminal domain) (Homo sapiens, UniProt P56470).
T3 sequence (P56470 19-150 limits assumed): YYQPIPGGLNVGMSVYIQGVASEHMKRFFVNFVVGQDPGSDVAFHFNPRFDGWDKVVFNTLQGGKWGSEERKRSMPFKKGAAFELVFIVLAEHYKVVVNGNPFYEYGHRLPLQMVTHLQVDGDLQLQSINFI
The conditions noted are these: fluorescence polarization, 20° C.; read-out: Calculated Kd Galectin 4 (N-terminal domain).
Text: as §1

In the next assay the target is galectin-1 (Homo sapiens, UniProt P09382). The conditions noted are these: 20° C., read-out: Calculated Kd Galectin 1.
galectin-1, sequence (P09382 whole entry, species assumed): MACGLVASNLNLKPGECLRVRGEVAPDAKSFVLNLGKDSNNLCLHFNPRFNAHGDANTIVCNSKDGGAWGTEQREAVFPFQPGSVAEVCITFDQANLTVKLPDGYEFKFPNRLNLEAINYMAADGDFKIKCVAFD
Text: as §1

The target in assay [5] is galectin-9 (C-terminal domain) (Homo sapiens, UniProt O00182). As to conditions: 20° C., read-out: Calculated Kd Galectin 9 (C-terminal domain).
galectin-9 (C-terminal domain), sequence (O00182 227-355 limits assumed, species assumed): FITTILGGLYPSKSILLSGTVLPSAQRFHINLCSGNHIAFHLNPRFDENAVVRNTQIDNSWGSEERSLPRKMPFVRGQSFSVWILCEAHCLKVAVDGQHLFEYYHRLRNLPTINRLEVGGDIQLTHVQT
Text: as §1

Another assay concerns the target galectin-7 (Homo sapiens, UniProt P47929). As to conditions: 0° C., read-out: Calculated Kd Galectin 7.
Text: as §1

galectin-3, sequence (P17931 whole entry, species assumed): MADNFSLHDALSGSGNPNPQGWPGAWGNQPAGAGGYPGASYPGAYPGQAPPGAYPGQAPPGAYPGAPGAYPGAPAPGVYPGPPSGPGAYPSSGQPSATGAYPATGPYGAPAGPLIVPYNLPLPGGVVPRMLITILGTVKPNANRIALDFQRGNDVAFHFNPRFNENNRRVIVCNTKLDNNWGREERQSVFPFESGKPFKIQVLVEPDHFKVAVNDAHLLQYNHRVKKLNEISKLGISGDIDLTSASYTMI
galectin-7, sequence (P47929 whole entry, species assumed): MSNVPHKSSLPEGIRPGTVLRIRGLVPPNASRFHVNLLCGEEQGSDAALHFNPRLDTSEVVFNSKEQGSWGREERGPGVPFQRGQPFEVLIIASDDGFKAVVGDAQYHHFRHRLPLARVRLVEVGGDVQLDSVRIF

The term Kd denotes the concentration at which binding is half-saturated. As to `O=c1oc2cc(O)ccc2cc1COC1C(O)[C@H](S[C@@H]2OC(CO)[C@H](O)C(OCc3cc4ccc(O)cc4oc3=O)C2O)OC(CO)[C@@H]1O` (stereo partly drawn) [Compound 23, bis-{3-O-[(7-hydroxy-2H-1-benzopyran-2-on-3-yl)-methyl]-β-D-galactopyranosy}sulfane], the Kd at galectin-3 was 0.076 µM; in assay [1] it was over 300 µM; in assay [2], 1.5 µM; in assay [3] it was 40 µM; in assay [4], 32 µM; on galectin-1, 3.9 µM.
As for `O=c1oc2ccc(O)cc2cc1COC1C(O)[C@H](S[C@@H]2OC(CO)[C@H](O)C(OCc3cc4cc(O)ccc4oc3=O)C2O)OC(CO)[C@@H]1O` (stereo partly drawn) [Compound 24, bis-{3-O-[(6-hydroxy-2H-1-benzopyran-2-on-3-yl)-methyl]-β-D-galactopyranosy}sulfane], the Kd on galectin-3 was 0.15 µM; in assay [1], over 300 µM; in assay [2], 8.9 µM; in assay [3] it was 140 µM; in assay [4] it was 180 µM; on galectin-1, 20 µM.
`O=c1oc2ccc3ccccc3c2cc1CO[C@H]1[C@@H](O)[C@@H](CO)O[C@@H](S[C@@H]2O[C@H](CO)[C@H](O)[C@H](OCc3cc4c(ccc5ccccc54)oc3=O)[C@H]2O)[C@@H]1O` [Compound 25, bis-{3-O-[(3H-naphtho[2,1-b]pyran-3-on-2-yl)-methyl]-β-D-galactopyranosyl}sulfane]: the Kd on galectin-3 is 0.51 µM; in assay [1] it was over 300 µM; in assay [2] it was 4.7 µM; in assay [3] it was over 300 µM; in assay [4], 110 µM; on galectin-1, 22 µM.
For `CC(C)(C)c1ccc2oc(=O)c(COC3C(O)[C@H](S[C@@H]4OC(CO)[C@H](O)C(OCc5cc6cc(C(C)(C)C)ccc6oc5=O)C4O)OC(CO)[C@@H]3O)cc2c1` (stereo partly drawn) [Compound 26, bis-{3-O-[(6-tert-butyl-2H-1-benzopyran-2-on-3-yl)-methyl]-β-D-galactopyranosy}sulfane], the Kd at galectin-3 is 8.1 µM; in assay [1], over 1000 µM; in assay [2], 39 µM; in assay [5], 17 µM; in assay [3], 62 µM; in assay [4] it was over 1000 µM. Besides, on galectin-1, the Kd is 25 µM.
In the case of `O=c1oc2ccc(Cl)cc2cc1COC1C(O)[C@H](S[C@@H]2OC(CO)[C@H](O)C(OCc3cc4cc(Cl)ccc4oc3=O)C2O)OC(CO)[C@@H]1O` (stereo partly drawn) [Compound 27, bis-{3-O-[(6-chloro-2H-1-benzopyran-2-on-3-yl)-methyl]-β-D-galactopyranosy}sulfane], the Kd was 6 µM at galectin-3; 100 µM in assay [1]; over 200 µM in assay [2]; 86 µM in assay [5]; 34 µM in assay [3]; 430 µM in assay [4]. Moreover, the Kd at galectin-1 was 7.9 µM.
On to `O=c1oc2ccc(F)cc2cc1CO[C@H]1[C@@H](O)[C@@H](CO)O[C@@H](S[C@@H]2O[C@H](CO)[C@H](O)[C@H](OCc3cc4cc(F)ccc4oc3=O)[C@H]2O)[C@@H]1O` [Compound 28, Bis-{3-O-[(6-fluoro-2H-1-benzopyran-2-on-3-yl)-methyl]-β-D-galactopyranosyl}sulfane], for which the Kd on galectin-3 is 0.097 µM; in assay [1], over 1000 µM; in assay [2] it was 3.5 µM; in assay [5], 7.9 µM; in assay [3], 47 µM; in assay [4], 180 µM. Further, the Kd at galectin-1 is 3.4 µM.
Consider `O=c1oc2cc(F)c(F)cc2cc1COC1C(O)[C@H](S[C@@H]2OC(CO)[C@H](O)C(OCc3cc4cc(F)c(F)cc4oc3=O)C2O)OC(CO)[C@@H]1O` (stereo partly drawn) [Compound 29, bis-{3-O-[(6,7-difluoro-2H-1-benzopyran-2-on-3-yl)-methyl]-β-D-galactopyranosy}sulfane], for which the Kd on galectin-3 was 0.11 µM; in assay [1], 220 µM; in assay [2] it was 3 µM; in assay [5] it was 2.3 µM; in assay [3], 19 µM; in assay [4] it was 44 µM. The Kd at galectin-1 is 1.6 µM.
Turning to `O=c1oc2cccc(Cl)c2cc1CO[C@H]1[C@@H](O)[C@@H](CO)O[C@@H](S[C@@H]2O[C@H](CO)[C@H](O)[C@H](OCc3cc4c(Cl)cccc4oc3=O)[C@H]2O)[C@@H]1O` [Compound 30, bis-{3-O-[(5-chloro-2H-1-benzopyran-2-on-3-yl)-methyl]-β-D-galactopyranosyl}sulfane], the dissociation constant (Kd) on galectin-3 was 0.17 µM; in assay [1], over 1000 µM; in assay [2] it was 54 µM; in assay [5] it was 16 µM; in assay [3] it was 28 µM; in assay [4] it was 55 µM. Also, the Kd at galectin-1 is 25 µM.
On to `O=c1oc2cccc(F)c2cc1CO[C@H]1[C@@H](O)[C@@H](CO)O[C@@H](S[C@@H]2O[C@H](CO)[C@H](O)[C@H](OCc3cc4c(F)cccc4oc3=O)[C@H]2O)[C@@H]1O` [Compound 31, Bis-{3-O-[(5-fluoro-2H-1-benzopyran-2-on-3-yl)-methyl]-β-D-galactopyranosyl}sulfane], for which the Kd at galectin-3 is 0.061 µM; in assay [1], 540 µM; in assay [2] it was 7 µM; in assay [5] it was 5.5 µM; in assay [3], 28 µM; in assay [4] it was 46 µM. On galectin-1, the Kd was 8.7 µM.
Consider `O=c1oc2ccc(F)c(F)c2cc1CO[C@H]1[C@@H](O)[C@@H](CO)O[C@@H](S[C@@H]2O[C@H](CO)[C@H](O)[C@H](OCc3cc4c(F)c(F)ccc4oc3=O)[C@H]2O)[C@@H]1O` [Compound 32, Bis-{3-O-[(5,6-difluoro-2H-1-benzopyran-2-on-3-yl)-methyl]-β-D-galactopyranosyl}sulfane], for which the Kd is 0.032 µM on galectin-3; over 500 µM in assay [1]; 1.1 µM in assay [2]; 1.5 µM in assay [5]; 41 µM in assay [3]; 22 µM in assay [4]. The dissociation constant (Kd) on galectin-1 is 3.9 µM.
Regarding `O=c1oc2ccc(OC(F)(F)F)cc2cc1COC1C(O)[C@H](S[C@@H]2OC(CO)[C@H](O)C(OCc3cc4cc(OC(F)(F)F)ccc4oc3=O)C2O)OC(CO)[C@@H]1O` (stereo partly drawn) [Compound 33, bis-{3-O-[(6-trifluoromethoxy-2H-1-benzopyran-2-on-3-yl)-methyl]-β-D-galactopyranosy}sulfane], the Kd was 0.95 µM at galectin-3; over 500 µM in assay [1]; 29 µM in assay [2]; 21 µM in assay [5]; 110 µM in assay [3]; over 500 µM in assay [4]. Besides, the Kd at galectin-1 is 84 µM.
Turning to `Cc1ccc2cc(COC3C(O)[C@H](S[C@@H]4OC(CO)[C@H](O)C(OCc5cc6ccc(C)cc6oc5=O)C4O)OC(CO)[C@@H]3O)c(=O)oc2c1` (stereo partly drawn) [Compound 34, bis-{3-O-[(7-methyl-2H-1-benzopyran-2-on-3-yl)-methyl]-β-D-galactopyranosy}sulfane], the Kd on galectin-3 is 9.4 µM; in assay [1], over 500 µM; in assay [2], over 200 µM; in assay [5], over 500 µM; in assay [3], over 700 µM; in assay [4], over 500 µM. Also, the Kd at galectin-1 is 200 µM.
Regarding `O=C(OC1C(O)[C@H](S[C@@H]2OC(CO)[C@H](O)C(OC(=O)c3ccc4ccccc4c3)C2O)OC(CO)[C@@H]1O)c1ccc2ccccc2c1` (stereo partly shown) [Compound 35, reference compound], the Kd is 10.7 µM at galectin-3, 2.8 µM in assay [2], 48 µM on galectin-7 and 14.7 µM on galectin-1.
